From ChEMBL document CHEMBL1201862, “PubChem BioAssay data set” (2004)
The source made the active and inactive calls.

Tests used:
Type in all cases: functional
[1] = growth suppression of beta-catenin-knockout colon cells, dose response, cell-based, HCT116, human colon tumor (AID 1045);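 further: HCT116 colon tumor cells with beta catenin knocked out; cells exposed to compound for 60 hours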
[2] = molecular target: Tyrosine-protein kinase ABL1 (Homo sapiens, UniProt P00519)
[3] = molecular target: Tyrosine-protein kinase receptor TYRO3 (Homo sapiens, UniProt Q06418);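 further: TYRO3 value obtained as one member of a kinome-wide profiling panel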
[4] = molecular target: ALK tyrosine kinase receptor (Homo sapiens, UniProt Q9UM73);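 further: ALK tested as one member of a kinase panel screen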
[5] = molecular target: Dual specificity protein kinase CLK2 (Homo sapiens, UniProt P49760)
[6] = molecular target: Mitogen-activated protein kinase kinase kinase kinase 4 (Homo sapiens, UniProt O95819)
[7] = molecular target: Serine/threonine-protein kinase pim-1 (Homo sapiens, UniProt P11309)
[8] = molecular target: BDNF/NT-3 growth factors receptor (Homo sapiens, UniProt Q16620);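 further: NTRK2 measured as one member of a broad kinome-wide kinase profiling panel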
[9] = molecular target: T1, Mitogen-activated protein kinase kinase kinase kinase 2 (Homo sapiens, UniProt Q12851);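 further: measured as one member of a kinome-wide kinase panel, with MAP4K2 as the panel entry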
T1 sequence (Q12851 whole entry): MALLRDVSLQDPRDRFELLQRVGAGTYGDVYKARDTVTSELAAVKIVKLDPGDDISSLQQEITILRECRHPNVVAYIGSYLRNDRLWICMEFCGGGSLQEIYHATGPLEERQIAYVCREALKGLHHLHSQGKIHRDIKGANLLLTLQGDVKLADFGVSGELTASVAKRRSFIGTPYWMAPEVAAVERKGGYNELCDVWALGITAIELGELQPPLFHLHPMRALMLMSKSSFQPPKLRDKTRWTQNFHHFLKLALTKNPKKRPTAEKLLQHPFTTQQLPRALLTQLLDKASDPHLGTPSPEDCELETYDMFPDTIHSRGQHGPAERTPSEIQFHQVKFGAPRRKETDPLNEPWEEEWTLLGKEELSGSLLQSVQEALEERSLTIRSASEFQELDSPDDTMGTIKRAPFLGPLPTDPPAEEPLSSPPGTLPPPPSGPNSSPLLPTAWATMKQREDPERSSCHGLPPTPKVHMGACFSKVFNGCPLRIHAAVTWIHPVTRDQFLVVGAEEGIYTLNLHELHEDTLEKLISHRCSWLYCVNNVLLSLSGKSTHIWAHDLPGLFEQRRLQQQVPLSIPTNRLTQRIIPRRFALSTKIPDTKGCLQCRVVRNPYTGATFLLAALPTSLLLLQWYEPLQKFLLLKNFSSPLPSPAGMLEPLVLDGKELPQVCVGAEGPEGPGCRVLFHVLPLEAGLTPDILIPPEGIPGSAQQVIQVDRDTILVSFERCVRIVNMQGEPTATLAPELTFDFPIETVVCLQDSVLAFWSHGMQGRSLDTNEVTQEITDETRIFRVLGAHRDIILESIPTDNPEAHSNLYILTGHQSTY

[10] = molecular target: Macrophage-stimulating protein receptor (Homo sapiens, UniProt Q04912); assay: Navigating the Kinome. Panel member name: MST1R
[11] = molecular target: Mitogen-activated protein kinase 14 (Homo sapiens, UniProt Q16539);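 further: part of a kinome-wide panel, MAPK14 entry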
[12] = molecular target: T2, Receptor-type tyrosine-protein kinase FLT3 (Homo sapiens, UniProt P36888);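 further: FLT3 was tested as one member of a kinome-wide kinase panel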
T2 sequence (P36888 whole entry): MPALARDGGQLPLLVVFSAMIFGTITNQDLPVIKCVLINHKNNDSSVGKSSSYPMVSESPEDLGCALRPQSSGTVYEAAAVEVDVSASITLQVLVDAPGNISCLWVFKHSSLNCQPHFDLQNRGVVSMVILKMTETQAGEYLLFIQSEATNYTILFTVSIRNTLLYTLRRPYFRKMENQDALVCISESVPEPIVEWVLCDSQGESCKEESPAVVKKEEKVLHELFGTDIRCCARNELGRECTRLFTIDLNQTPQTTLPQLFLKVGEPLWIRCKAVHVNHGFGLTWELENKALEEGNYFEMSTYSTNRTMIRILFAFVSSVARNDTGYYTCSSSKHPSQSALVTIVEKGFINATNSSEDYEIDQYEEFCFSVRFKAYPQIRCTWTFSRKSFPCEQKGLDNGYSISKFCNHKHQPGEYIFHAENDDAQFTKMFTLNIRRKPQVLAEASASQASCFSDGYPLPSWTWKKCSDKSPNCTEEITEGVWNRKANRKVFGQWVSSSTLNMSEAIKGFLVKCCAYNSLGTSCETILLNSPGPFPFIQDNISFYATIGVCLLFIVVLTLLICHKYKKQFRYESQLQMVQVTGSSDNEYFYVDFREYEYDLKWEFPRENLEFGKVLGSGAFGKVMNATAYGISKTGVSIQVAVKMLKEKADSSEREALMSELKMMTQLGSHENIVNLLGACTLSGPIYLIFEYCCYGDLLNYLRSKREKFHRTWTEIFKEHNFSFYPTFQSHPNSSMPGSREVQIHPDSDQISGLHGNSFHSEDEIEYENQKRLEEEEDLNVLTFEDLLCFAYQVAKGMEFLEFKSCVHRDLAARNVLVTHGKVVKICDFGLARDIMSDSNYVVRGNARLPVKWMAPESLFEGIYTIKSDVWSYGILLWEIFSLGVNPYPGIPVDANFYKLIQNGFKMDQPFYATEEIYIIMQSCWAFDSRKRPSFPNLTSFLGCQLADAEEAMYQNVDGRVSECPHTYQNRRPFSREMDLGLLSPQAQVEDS

[13] = molecular target: 5'-AMP-activated protein kinase catalytic subunit alpha-1 (Homo sapiens, UniProt Q13131)
[14] = molecular target: Dual specificity mitogen-activated protein kinase kinase 1 (Homo sapiens, UniProt Q02750); assay: Navigating the Kinome. Panel member name: MAP2K1
[15] = molecular target: Tyrosine-protein kinase BTK (Homo sapiens, UniProt Q06187)
[16] = molecular target: Leucine-rich repeat serine/threonine-protein kinase 2 (Homo sapiens, UniProt Q5S007);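 further: value from a broad kinome-wide panel profiling study in which LRRK2 was one of the kinases tested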
[17] = molecular target: Serine/threonine-protein kinase TAO1 (Homo sapiens, UniProt Q7L7X3)
[18] = molecular target: Insulin-like growth factor 1 receptor (Homo sapiens, UniProt P08069); assay: Navigating the Kinome. Panel member name: IGF1R

Sequence of Dual specificity mitogen-activated protein kinase kinase 1 (Q02750 whole entry): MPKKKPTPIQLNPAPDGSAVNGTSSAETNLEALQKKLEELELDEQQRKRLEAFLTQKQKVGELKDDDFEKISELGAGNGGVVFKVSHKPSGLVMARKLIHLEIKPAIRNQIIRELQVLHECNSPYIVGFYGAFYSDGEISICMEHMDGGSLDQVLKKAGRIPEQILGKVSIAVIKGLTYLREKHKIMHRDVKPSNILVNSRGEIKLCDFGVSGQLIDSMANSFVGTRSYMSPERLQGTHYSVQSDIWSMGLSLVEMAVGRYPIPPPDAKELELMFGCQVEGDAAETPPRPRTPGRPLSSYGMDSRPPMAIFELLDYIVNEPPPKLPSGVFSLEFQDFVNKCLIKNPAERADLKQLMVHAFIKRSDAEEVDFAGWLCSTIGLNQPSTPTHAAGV
Sequence of Leucine-rich repeat serine/threonine-protein kinase 2 (Q5S007 whole entry): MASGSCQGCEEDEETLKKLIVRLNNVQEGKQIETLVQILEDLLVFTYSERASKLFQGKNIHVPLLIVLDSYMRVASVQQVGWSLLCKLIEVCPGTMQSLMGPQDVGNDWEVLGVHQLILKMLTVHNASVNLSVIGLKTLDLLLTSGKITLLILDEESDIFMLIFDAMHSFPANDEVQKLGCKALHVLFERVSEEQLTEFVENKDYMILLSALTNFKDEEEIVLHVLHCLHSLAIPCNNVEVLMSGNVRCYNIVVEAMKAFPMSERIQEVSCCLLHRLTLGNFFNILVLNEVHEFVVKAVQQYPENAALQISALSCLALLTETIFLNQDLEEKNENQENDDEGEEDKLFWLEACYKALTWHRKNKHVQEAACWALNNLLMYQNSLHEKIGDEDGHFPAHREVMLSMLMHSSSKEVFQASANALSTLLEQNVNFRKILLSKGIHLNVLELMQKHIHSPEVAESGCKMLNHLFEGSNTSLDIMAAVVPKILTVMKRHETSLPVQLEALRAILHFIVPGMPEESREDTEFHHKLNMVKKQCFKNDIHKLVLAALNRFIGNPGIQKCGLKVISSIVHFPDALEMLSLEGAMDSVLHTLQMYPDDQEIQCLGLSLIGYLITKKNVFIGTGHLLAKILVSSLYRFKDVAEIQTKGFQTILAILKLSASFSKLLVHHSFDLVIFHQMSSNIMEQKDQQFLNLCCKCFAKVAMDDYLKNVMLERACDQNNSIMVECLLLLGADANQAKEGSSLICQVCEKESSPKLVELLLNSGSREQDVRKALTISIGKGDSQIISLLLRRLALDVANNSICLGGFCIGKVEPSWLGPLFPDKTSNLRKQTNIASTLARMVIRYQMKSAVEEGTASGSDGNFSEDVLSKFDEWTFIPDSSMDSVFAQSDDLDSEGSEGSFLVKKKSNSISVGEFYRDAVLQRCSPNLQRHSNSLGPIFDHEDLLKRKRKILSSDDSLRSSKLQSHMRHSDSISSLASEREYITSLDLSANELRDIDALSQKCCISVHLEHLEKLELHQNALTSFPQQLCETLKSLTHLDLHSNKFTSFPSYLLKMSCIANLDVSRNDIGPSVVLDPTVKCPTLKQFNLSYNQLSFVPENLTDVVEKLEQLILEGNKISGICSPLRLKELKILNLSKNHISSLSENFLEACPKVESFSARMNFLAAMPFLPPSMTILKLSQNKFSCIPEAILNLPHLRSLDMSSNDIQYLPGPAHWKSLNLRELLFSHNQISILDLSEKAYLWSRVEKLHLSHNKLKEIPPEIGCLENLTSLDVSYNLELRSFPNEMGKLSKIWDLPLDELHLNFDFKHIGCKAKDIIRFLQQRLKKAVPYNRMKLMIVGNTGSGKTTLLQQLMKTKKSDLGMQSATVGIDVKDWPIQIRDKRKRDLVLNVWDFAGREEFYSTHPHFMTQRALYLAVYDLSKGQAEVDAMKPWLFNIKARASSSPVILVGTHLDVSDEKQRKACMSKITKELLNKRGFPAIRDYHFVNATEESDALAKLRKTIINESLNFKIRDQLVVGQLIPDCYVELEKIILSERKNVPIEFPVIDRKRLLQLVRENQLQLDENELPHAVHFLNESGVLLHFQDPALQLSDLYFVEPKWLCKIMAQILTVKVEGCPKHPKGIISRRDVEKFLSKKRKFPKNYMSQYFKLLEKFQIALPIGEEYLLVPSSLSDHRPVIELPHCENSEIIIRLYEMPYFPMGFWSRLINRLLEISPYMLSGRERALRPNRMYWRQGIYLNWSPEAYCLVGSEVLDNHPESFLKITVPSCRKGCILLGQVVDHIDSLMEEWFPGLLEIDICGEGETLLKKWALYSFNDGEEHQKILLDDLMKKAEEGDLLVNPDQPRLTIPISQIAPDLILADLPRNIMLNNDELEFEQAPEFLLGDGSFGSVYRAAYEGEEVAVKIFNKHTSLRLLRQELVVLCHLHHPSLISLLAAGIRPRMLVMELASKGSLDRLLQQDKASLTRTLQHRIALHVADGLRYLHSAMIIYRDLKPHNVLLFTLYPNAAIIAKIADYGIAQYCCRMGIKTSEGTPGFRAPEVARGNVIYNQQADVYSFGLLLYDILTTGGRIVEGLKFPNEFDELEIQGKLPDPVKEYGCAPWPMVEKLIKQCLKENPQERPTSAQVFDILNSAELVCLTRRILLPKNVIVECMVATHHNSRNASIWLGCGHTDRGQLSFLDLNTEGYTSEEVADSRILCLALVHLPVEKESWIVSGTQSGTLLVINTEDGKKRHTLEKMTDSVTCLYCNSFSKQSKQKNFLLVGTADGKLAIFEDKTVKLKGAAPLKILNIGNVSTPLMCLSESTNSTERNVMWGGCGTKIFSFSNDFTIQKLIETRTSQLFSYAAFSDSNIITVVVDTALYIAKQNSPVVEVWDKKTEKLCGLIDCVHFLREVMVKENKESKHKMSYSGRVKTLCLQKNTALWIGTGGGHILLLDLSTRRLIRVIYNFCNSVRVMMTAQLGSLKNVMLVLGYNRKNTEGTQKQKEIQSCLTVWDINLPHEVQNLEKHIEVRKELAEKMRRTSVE
Sequence of Mitogen-activated protein kinase kinase kinase kinase 4 (O95819 whole entry): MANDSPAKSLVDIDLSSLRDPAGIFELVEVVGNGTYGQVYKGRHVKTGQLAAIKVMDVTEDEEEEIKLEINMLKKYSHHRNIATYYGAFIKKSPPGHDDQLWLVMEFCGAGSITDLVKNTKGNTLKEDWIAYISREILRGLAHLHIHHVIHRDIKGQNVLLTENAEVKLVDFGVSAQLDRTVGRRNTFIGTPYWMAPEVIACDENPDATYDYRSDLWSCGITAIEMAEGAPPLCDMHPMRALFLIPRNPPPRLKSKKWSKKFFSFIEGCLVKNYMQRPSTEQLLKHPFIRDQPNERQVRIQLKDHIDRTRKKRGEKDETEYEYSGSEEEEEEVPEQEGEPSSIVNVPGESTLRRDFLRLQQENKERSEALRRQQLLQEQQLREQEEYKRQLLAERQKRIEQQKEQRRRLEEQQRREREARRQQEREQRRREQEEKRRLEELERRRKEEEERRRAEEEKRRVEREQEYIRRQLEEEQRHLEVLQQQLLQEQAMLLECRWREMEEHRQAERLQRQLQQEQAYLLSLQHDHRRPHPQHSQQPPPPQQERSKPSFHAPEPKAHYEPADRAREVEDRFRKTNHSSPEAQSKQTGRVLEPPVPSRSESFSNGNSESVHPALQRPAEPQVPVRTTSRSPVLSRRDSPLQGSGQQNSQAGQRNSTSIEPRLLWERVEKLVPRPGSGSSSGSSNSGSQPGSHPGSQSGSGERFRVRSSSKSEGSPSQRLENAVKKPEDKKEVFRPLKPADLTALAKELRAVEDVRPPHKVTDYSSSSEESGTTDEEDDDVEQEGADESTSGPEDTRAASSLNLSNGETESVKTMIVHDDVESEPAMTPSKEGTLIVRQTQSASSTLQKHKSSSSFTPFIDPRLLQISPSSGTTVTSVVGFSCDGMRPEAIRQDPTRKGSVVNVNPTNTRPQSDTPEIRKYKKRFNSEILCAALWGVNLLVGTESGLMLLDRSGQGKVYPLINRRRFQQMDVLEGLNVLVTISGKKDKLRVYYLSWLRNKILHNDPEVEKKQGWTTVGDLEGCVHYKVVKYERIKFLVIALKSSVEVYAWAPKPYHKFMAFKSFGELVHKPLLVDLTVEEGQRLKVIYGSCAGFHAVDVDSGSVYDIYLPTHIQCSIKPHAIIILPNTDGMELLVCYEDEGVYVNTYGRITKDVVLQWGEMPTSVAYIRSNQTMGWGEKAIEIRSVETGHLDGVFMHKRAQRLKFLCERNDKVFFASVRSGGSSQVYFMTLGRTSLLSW
Sequence of BDNF/NT-3 growth factors receptor (Q16620 whole entry): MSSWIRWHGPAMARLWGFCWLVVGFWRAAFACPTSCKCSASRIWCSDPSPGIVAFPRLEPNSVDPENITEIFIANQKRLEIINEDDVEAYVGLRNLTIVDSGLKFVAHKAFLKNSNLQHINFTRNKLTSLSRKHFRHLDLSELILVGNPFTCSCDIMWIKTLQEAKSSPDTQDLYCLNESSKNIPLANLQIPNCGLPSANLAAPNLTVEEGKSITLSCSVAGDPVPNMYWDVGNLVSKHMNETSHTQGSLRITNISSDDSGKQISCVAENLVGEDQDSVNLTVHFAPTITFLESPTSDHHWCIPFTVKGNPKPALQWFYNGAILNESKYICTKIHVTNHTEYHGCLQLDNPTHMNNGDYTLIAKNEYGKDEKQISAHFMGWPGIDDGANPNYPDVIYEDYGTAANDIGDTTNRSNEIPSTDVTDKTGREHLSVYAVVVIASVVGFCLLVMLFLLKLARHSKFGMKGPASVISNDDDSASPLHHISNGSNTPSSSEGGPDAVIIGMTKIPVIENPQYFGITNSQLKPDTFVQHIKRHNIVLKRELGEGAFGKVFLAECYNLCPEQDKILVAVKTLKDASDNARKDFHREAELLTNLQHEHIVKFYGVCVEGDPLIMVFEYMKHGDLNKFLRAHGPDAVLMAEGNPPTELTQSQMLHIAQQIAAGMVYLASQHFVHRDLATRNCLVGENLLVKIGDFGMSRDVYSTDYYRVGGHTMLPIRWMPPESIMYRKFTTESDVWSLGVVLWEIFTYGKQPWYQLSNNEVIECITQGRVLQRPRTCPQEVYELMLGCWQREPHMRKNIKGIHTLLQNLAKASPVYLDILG

Ki [2]	Ki [3]	Ki [4]	Ki [5]	Ki [6]	Ki [7]	Ki [8]	Ki [9]	Ki [10]	Ki [11]	Ki [12]	Ki [13]	Ki [14]	Ki [15]	Ki [16]	Ki [17]	Ki [18]	SMILES	EC50 [1]	other results
																	CCOC(=O)c1ccc(NC2=CC(=O)C(=O)c3ccccc32)cc1	13800 nM (active)	
																	OC(CNCCC1C=Nc2ccccc21)Cn1c2ccc(Cl)cc2c2cc(Cl)ccc21 (centres undefined)	2700 nM (active)	
1580 nM (active)	2510 nM (active)	631 nM (active)	7.94 nM (active)	20 nM (active)	126 nM (active)	794 nM (active)	63.1 nM (active)	63.1 nM (active)	2000 nM (active)	6.31 nM (active)	39.8 nM (active)	20 nM (active)	> 6310 nM (inactive)	2 nM (active)	> 6310 nM (inactive)	> 2510 nM (inactive)	NC1CCC(Nc2nc(Cl)cc(-c3c[nH]c4ncccc34)n2)CC1 (centres undefined)		pKi [2]: 5.8; pKi [4]: 6.2; pKi [5]: 8.1; pKi [6]: 7.7; pKi [7]: 6.9; pKi [8]: 6.1; pKi [9]: 7.2; pKi [10]: 7.2; pKi [11]: 5.7; pKi [12]: 8.2; pKi [13]: 7.4; pKi [14]: 7.7; pKi [16]: 8.7
> 2510 nM (inactive)	> 3160 nM (inactive)	> 6310 nM (inactive)	> 3980 nM (inactive)	> 5010 nM (inactive)	> 6310 nM (inactive)	> 3980 nM (inactive)	> 2510 nM (inactive)	> 3980 nM (inactive)	> 3980 nM (inactive)	> 3160 nM (inactive)	> 3160 nM (inactive)	> 3160 nM (inactive)	> 6310 nM (inactive)	> 2510 nM (inactive)	> 6310 nM (inactive)	> 2510 nM (inactive)	O=C(O)C1CN(Cc2ccc(OCc3ccccc3)cc2Cl)C1		
